From patent publication US8404651B2, “Compositions and methods for treating viral infections” (priority 2008, dated 2013)

System: HCV replicon cell line, AVA5 [sub-genomic (CON1), genotype 1b]
Assay: microbe, parasite or virus in culture
Assay type: cell-based
Settings: Hepatitis C virus
Experimental: Primary anti-HCV assay-Antiviral activity against HCV was assessed in a 3-day assay (Okuse, et al., 2005; Antiviral. Res. 65:23; Korba, et al., 2008, Antiviral Res. 77:56) using the stably-expressing HCV replicon cell line, AVA5 [sub-genomic (CON1), genotype 1b](Blight, et al., 2000, Science 290:1972) maintained as sub-confluent cultures on 96-well plates. Antiviral activity was determined by blot hybridization analysis of intracellular HCV RNA (normalized to the level of cellular B-actin RNA in each culture sample). Cytotoxicity was assessed by neutral red dye uptake in cultures maintained in parallel plates.
EC50, EC90, and CC50 values were calculated by linear regression analysis (MS EXCEL®, QUATTROPRO®) using data combined from all treated cultures Korba & Gerin, 1992, Antivir. Res. 19:55; Okuse, et al., 2005, Antivir. Res. 65:23). Standard deviations for EC50 and EC90 values were calculated from the standard errors generated by the regression analyses. […] The Selectivity index (S.I.) was calculated as CC50/EC50. Recombinant human interferon 2b (PBL laboratories, Inc.) was used as an assay control.
For each combination of agents, three concentration ratios, centered on the use of the compounds at equipotent antiviral concentrations, were used. A dilution series (six three-fold-concentration steps, beginning at the approximate EC90) was then generated with the concentration ratio of the two agents remaining the same in each dilution step. Toxicity analysis was performed as described above for the monotherapies. Analysis of drug interactions in the combination studies was determined by the use of the […] program (Biosoft, Inc., Cambridge, United Kingdom). This program evaluates synergy, additivity, or antagonism by use of several methodologies, including that of Chou and Talalay with a statistical analysis employing the Monte Carlo technique to provide confidence limits, fraction-affected-confidence interval (FA-CI) plots, isobolograms, and median-effect plots. (Belenkii, M. S. Schinazi, R. A method for the analysis of combination therapies with statistical analysis. Antiviral Res. 25, 11, 2005).

Question: `COC1C(OP(=O)(OC[C@H]2O[C@@H](n3cnc4c(N)ncnc43)CC2O)SCOC(=O)OC(C)C)[C@@H](CO)O[C@H]1n1ccc(=O)[nH]c1=O` (some centres unmarked) [Compound 2, S-isopropylcarbonyloxymethyl thiophosphate (6k) of 3′dApsU2′OMe] was tested. Which EC50 (Ava5, read-out: EC50 HCV type 1B) did it give?
Answer: 1 µM

Question: What about the EC90 (Ava5, read-out: EC90 HCV type 1B) of the same compound?
Answer: 6 µM
